Data taken from ChEMBL document CHEMBL1141584, “Synthesis, biological evaluation and molecular modelling studies of methyleneimidazole substituted biaryls as inhibitors of human 17alpha-hydroxylase-17,20-lyase (CYP17). Part I: Heterocyclic modifications of the core structure” (Bioorg Med Chem, 2008).
Blank lines part the entries; values can stand above or below the compound they belong to.

Columns and labels:
[1] = target: T1, CYP2C19 (Homo sapiens, UniProt P33261); assay: Inhibition of recombinant CYP2C19 at 10 uM; assay type: ADME
T1 sequence (P33261 whole entry): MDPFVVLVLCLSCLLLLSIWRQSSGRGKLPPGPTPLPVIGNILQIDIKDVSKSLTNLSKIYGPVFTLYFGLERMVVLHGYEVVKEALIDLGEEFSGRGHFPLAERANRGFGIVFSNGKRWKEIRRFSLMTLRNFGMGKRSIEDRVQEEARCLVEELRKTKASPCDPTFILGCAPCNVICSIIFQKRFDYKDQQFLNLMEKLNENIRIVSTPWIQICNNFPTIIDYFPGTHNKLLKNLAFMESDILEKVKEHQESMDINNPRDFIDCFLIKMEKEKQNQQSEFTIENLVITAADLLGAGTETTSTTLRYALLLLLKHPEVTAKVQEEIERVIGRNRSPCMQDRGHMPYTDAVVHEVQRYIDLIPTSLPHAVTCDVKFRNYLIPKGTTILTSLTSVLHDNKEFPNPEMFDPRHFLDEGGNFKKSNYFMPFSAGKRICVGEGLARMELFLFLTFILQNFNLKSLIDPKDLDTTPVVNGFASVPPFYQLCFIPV

[2] = target: T2, Steroid 17-alpha-hydroxylase/17,20 lyase (Homo sapiens, UniProt P05093); assay: Inhibition of human CYP17 expressed in Escherichia coli co-expressed with NADPH-P450 reductase at 0.2 uM
T2 sequence (P05093 whole entry): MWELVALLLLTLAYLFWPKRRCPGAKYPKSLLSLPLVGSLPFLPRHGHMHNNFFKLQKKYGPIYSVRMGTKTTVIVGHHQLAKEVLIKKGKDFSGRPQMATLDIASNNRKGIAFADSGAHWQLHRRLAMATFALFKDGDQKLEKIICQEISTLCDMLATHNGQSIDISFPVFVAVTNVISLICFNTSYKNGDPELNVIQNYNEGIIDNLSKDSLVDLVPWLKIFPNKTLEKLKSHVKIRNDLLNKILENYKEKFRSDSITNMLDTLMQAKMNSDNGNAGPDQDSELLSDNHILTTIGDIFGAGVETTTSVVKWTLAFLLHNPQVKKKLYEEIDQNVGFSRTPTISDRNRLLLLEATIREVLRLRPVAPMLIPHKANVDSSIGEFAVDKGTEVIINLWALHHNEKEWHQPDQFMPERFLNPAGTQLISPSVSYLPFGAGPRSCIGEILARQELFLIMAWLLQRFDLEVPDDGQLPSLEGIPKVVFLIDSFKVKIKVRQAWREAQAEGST

[3] = target: T1, CYP2C19; assay: Inhibition of recombinant CYP2C19 at 1 uM; assay type: ADME
[4] = target: T3, CYP1A2 (Homo sapiens, UniProt P05177); assay: Inhibition of recombinant CYP1A2 at 10 uM; assay type: ADME
T3 sequence (P05177 whole entry): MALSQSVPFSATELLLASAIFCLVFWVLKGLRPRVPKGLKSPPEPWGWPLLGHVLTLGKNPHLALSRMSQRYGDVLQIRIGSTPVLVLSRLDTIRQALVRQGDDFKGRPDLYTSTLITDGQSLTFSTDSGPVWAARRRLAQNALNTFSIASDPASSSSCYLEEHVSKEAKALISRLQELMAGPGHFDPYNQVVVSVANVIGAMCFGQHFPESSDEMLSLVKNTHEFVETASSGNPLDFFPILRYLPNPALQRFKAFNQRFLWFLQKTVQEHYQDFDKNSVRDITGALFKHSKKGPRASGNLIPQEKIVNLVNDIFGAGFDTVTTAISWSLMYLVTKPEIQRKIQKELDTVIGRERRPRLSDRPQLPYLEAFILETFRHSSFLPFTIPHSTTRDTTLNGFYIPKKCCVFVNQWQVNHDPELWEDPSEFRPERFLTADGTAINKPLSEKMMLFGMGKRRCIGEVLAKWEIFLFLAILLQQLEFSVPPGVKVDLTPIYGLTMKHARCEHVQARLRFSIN

[5] = target: T4, CYP2C9 (Homo sapiens, UniProt P11712); assay: Inhibition of recombinant CYP2C9 at 1 uM; assay type: ADME
T4 sequence (P11712 whole entry): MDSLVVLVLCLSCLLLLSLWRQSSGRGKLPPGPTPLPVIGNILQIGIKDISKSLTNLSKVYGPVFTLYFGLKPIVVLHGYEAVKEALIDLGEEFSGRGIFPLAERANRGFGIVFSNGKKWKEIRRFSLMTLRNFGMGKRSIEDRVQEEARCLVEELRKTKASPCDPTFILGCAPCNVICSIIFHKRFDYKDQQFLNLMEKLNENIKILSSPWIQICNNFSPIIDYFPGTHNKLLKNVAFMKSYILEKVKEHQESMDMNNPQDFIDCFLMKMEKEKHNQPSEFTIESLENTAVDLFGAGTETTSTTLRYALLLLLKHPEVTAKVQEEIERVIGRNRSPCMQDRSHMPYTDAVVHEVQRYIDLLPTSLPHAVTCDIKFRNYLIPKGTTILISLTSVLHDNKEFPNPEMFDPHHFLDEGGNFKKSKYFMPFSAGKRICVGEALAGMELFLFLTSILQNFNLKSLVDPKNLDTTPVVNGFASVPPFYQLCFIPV

[6] = target: T3, CYP1A2; assay: Inhibition of recombinant CYP1A2 at 1 uM; assay type: ADME
[7] = target: T2, Steroid 17-alpha-hydroxylase/17,20 lyase; assay: Inhibition of human CYP17 expressed in Escherichia coli co-expressed with NADPH-P450 reductase at 2 uM
[8] = target: T4, CYP2C9; assay: Inhibition of recombinant CYP2C9 at 10 uM; assay type: ADME
[9] = target: T2, Steroid 17-alpha-hydroxylase/17,20 lyase; assay: Inhibition of human CYP17 expressed in Escherichia coli co-expressed with NADPH-P450 reductase
[10] = target: T5, CYP3A4 (Homo sapiens, UniProt P08684); assay: Inhibition of recombinant CYP3A4 at 1 uM; assay type: ADME
T5 sequence (P08684 whole entry): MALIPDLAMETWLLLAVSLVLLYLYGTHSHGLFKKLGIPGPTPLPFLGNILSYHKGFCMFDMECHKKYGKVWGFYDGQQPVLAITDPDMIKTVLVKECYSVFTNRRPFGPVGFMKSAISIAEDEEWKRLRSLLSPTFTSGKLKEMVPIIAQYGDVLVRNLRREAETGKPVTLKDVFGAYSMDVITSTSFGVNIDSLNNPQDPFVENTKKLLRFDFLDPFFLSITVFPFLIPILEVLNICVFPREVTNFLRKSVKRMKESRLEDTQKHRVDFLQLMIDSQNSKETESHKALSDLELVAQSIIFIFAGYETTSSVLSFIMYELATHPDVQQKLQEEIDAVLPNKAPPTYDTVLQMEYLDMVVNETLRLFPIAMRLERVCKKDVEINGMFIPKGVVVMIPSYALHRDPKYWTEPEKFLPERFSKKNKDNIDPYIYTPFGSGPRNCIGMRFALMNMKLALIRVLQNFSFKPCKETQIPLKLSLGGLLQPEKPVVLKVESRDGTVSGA

[11] = target: T5, CYP3A4; assay: Inhibition of recombinant CYP3A4 at 10 uM; assay type: ADME
[12] = AUC (0 to infinity) in Wistar rat at 50 mg/kg, po; assay type: ADME, organism-based; design: time infinity, dose 50 mg/kg, route oral; details: plasma
[13] = system: Rattus norvegicus; assay: Reduction of testosterone level in Wistar rat at 50 mg/kg, po after 4 hrs by ELISA relative to pretreatment value; assay type: functional; design: scale not given: the % may be the effect or the level left
[14] = Cmax in Wistar rat at 50 mg/kg, po; assay type: ADME, organism-based; design: dose 50 mg/kg, route oral; details: in vivo
[15] = system: Rattus norvegicus; assay: Reduction of testosterone level in Wistar rat plasma at 50 mg/kg, po after 8 hrs by ELISA relative to pretreatment value; assay type: functional; design: scale not given: the % may be the effect or the level left
[16] = target: T6, Steroid 17-alpha-hydroxylase/17,20 lyase (Rattus norvegicus, UniProt P11715); assay: Inhibition of Sprague-Dawley rat testicular CYP17
T6 sequence (P11715 whole entry): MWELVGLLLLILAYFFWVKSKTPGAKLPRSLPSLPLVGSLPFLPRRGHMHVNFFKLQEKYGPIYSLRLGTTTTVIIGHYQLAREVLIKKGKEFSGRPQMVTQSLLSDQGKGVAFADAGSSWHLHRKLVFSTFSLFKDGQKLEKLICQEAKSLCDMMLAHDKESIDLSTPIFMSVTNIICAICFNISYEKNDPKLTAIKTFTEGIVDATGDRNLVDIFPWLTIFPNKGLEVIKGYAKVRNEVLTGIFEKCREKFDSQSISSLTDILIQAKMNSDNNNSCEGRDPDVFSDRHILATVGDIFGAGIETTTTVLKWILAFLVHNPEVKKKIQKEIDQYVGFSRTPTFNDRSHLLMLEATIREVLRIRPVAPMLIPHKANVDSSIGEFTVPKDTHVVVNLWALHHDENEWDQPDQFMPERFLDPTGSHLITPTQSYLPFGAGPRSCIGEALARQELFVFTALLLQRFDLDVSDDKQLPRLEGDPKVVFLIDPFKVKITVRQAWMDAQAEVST

[17] = system: Rattus norvegicus; assay: Reduction of testosterone level in Wistar rat plasma at 50 mg/kg, po after 6 hrs by ELISA relative to pretreatment value; assay type: functional; design: scale not given: the % may be the effect or the level left
[18] = Total body clearance in Wistar rat at 50 mg/kg, po; assay type: ADME, organism-based; design: dose 50 mg/kg, route oral; details: in vivo
[19] = Tmax in Wistar rat at 50 mg/kg, po; assay type: ADME, organism-based; design: dose 50 mg/kg, route oral; details: in vivo
[20] = Terminal half life in Wistar rat plasma at 50 mg/kg, po; assay type: ADME, organism-based; design: dose 50 mg/kg, route oral
[21] = target: T7, CYP2D6 (Homo sapiens, UniProt P10635); assay: Inhibition of recombinant CYP2D6 at 1 uM; assay type: ADME
T7 sequence (P10635 whole entry): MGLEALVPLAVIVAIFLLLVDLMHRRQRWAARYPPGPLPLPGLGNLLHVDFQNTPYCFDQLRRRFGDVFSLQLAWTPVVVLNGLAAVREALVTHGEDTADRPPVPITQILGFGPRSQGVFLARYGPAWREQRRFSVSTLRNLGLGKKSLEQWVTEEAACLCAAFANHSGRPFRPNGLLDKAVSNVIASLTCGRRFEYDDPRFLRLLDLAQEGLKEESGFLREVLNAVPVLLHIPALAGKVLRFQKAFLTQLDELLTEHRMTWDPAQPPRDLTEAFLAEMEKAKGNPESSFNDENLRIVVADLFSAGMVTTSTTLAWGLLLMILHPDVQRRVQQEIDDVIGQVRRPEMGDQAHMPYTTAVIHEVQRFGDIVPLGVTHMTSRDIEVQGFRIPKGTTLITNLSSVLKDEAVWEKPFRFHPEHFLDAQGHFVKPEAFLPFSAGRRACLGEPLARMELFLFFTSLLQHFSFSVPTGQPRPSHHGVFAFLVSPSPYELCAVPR

[22] = target: T8, CYP2B6 (Homo sapiens, UniProt P20813); assay: Inhibition of recombinant CYP2B6 at 1 uM; assay type: ADME
T8 sequence (P20813 whole entry): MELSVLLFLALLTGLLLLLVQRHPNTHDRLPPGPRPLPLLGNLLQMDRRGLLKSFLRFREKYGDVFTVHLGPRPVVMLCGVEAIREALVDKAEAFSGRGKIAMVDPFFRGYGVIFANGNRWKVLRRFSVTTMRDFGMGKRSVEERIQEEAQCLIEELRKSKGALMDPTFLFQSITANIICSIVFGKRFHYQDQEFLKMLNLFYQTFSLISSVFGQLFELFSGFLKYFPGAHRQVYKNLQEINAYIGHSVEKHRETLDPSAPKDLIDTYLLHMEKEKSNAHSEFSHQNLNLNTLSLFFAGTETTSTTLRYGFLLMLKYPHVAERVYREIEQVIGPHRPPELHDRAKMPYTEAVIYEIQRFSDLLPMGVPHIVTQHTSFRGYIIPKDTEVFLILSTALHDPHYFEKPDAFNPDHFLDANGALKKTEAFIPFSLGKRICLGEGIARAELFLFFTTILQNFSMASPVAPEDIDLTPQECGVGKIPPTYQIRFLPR

[23] = system: Rattus norvegicus; assay: Reduction of testosterone level in Wistar rat plasma at 50 mg/kg, po after 1 hr by ELISA relative to pretreatment value; assay type: functional; design: scale not given: the % may be the effect or the level left
[24] = target: T7, CYP2D6; assay: Inhibition of recombinant CYP2D6 at 10 uM; assay type: ADME
[25] = target: T8, CYP2B6; assay: Inhibition of recombinant CYP2B6 at 10 uM; assay type: ADME
[26] = target: T2, Steroid 17-alpha-hydroxylase/17,20 lyase; assay: Inhibition of human CYP17 expressed in Escherichia coli co-expressed with NADPH-P450 reductase at 1 uM

Compound: CCC(c1cc(-c2ccc(F)c(F)c2)cs1)n1ccnc1 (configuration not stated)
inhibition at 10 µM [1]: 97%
inhibition at 0.2 µM [2]: 17%
inhibition at 1 µM [3]: 95%
inhibition at 10 µM [4]: 96%
inhibition at 1 µM [5]: 94%
inhibition at 1 µM [6]: 93%
inhibition at 2 µM [7]: 68%
inhibition at 10 µM [8]: 100%

Compound: COc1cccc(-c2csc(Cn3ccnc3)c2)c1
inhibition at 0.2 µM [2]: 0%
inhibition at 2 µM [7]: 24%

Compound: Fc1ccc(-c2csc(Cn3ccnc3)c2)cc1F
inhibition at 0.2 µM [2]: 7%
inhibition at 2 µM [7]: 25%

Compound: CCC(c1ccc(-c2ccsc2Cl)cc1)n1ccnc1 (configuration not stated)
inhibition at 0.2 µM [2]: 40%
IC50 [9]: 0.263 µM
inhibition at 1 µM [10]: 87%
inhibition at 10 µM [11]: 97%
inhibition at 2 µM [7]: 85%

Compound: COc1ccc(-c2csc(Cn3ccnc3)c2)cc1OC
inhibition at 0.2 µM [2]: 0%
inhibition at 2 µM [7]: 14%

Compound: CC(=O)N1CCN(c2ccc(OCC3COC(Cn4ccnc4)(c4ccc(Cl)cc4Cl)O3)cc2)CC1 (configuration not stated) [KETOCONAZOLE]
inhibition at 10 µM [1]: 79%
inhibition at 1 µM [26]: 19%
inhibition at 1 µM [22]: 11%
inhibition at 10 µM [25]: 57%

Compound: CCC(c1ccc(-c2cscc2C)cc1)n1ccnc1 (configuration not stated)
inhibition at 0.2 µM [2]: 27%
IC50 [9]: 0.584 µM
inhibition at 2 µM [7]: 84%

Second part, led by results:

inhibition at 0.2 µM [2]: 0%
inhibition at 2 µM [7]: 4%
Compound: c1ccc(-c2ccc(Cn3ccnc3)cn2)cc1

inhibition at 0.2 µM [2]: 0%
inhibition at 2 µM [7]: 13%
Compound: COc1ccc(-c2csc(Cn3ccnc3)c2)cc1

inhibition at 0.2 µM [2]: 2%
inhibition at 2 µM [7]: 14%
Compound: c1cncc(-c2ccc(Cn3ccnc3)cc2)c1

inhibition at 0.2 µM [2]: 0%
inhibition at 2 µM [7]: 5%
Compound: COc1ccccc1-c1ccc(Cn2ccnc2)cn1

inhibition at 0.2 µM [2]: 0%
inhibition at 2 µM [7]: 2%
Compound: Fc1ccc(-c2ccc(Cn3ccnc3)nc2)cc1

inhibition at 0.2 µM [2]: 9%
inhibition at 2 µM [7]: 24%
Compound: ClCc1ccc(-c2ccc(Cn3ccnc3)cc2)cn1

inhibition at 0.2 µM [2]: 3%
inhibition at 2 µM [7]: 35%
Compound: CSc1ccc(-c2ccc(Cn3ccnc3)cc2)s1

AUC(0-inf) [12]: 24900 ng·h/mL
inhibition at 10 µM [1]: 99%
inhibition at 0.2 µM [2]: 21%
IC50 [9]: 0.953 µM
Cmax [14]: 1280 ng/mL
inhibition at 1 µM [3]: 87%
inhibition at 1 µM [10]: 80%
IC50 [16]: 0.676 µM
CL/F [18]: 33.5 mL/min/kg
inhibition at 10 µM [11]: 94%
Tmax [19]: 1 h
inhibition at 10 µM [4]: 100%
inhibition at 1 µM [5]: 75%
inhibition at 1 µM [6]: 97%
half-life [20]: 9.5 h
inhibition at 1 µM [21]: 17%
inhibition at 1 µM [22]: 49%
inhibition at 2 µM [7]: 67%
inhibition at 10 µM [24]: 68%
inhibition at 10 µM [8]: 89%
inhibition at 10 µM [25]: 87%
Compound: CC(c1ccc(-c2ccsc2)cc1)n1ccnc1 (configuration not stated)
Activity [13]: 25.9%
Activity [15]: 34.1%
Activity [17]: 29.7%
Activity [23]: 30.9%

inhibition at 0.2 µM [2]: 5%
inhibition at 2 µM [7]: 3%
Compound: c1cn(Cc2ccc(-c3cncnc3)cc2)cn1
